Test results reported in publication PMC11827853, “C2230, a preferential use- and state-dependent CaV2.2 channel blocker, mitigates pain behaviors across multiple pain models” (The Journal of Clinical Investigation, 2024).

How the values were obtained:
CaV1.2 = tested on: T1, CaV1.2; assay: patch-clamp of heterologously expressed channel, Vh -80 mV ([…] at -50 mV); format: cell-based
T1 construct: gene CACNA1C

[1] = molecular target: T2, CaV2.2 (N-type) calcium channel (Rattus norvegicus, UniProt Q02294); assay: patch-clamp in HEK293 cells expressing the channel, Vh -50 mV ([…] at -80 mV); format: cell-based
T2 construct: gene Cacna1b
T2 sequence (Q02294 whole entry): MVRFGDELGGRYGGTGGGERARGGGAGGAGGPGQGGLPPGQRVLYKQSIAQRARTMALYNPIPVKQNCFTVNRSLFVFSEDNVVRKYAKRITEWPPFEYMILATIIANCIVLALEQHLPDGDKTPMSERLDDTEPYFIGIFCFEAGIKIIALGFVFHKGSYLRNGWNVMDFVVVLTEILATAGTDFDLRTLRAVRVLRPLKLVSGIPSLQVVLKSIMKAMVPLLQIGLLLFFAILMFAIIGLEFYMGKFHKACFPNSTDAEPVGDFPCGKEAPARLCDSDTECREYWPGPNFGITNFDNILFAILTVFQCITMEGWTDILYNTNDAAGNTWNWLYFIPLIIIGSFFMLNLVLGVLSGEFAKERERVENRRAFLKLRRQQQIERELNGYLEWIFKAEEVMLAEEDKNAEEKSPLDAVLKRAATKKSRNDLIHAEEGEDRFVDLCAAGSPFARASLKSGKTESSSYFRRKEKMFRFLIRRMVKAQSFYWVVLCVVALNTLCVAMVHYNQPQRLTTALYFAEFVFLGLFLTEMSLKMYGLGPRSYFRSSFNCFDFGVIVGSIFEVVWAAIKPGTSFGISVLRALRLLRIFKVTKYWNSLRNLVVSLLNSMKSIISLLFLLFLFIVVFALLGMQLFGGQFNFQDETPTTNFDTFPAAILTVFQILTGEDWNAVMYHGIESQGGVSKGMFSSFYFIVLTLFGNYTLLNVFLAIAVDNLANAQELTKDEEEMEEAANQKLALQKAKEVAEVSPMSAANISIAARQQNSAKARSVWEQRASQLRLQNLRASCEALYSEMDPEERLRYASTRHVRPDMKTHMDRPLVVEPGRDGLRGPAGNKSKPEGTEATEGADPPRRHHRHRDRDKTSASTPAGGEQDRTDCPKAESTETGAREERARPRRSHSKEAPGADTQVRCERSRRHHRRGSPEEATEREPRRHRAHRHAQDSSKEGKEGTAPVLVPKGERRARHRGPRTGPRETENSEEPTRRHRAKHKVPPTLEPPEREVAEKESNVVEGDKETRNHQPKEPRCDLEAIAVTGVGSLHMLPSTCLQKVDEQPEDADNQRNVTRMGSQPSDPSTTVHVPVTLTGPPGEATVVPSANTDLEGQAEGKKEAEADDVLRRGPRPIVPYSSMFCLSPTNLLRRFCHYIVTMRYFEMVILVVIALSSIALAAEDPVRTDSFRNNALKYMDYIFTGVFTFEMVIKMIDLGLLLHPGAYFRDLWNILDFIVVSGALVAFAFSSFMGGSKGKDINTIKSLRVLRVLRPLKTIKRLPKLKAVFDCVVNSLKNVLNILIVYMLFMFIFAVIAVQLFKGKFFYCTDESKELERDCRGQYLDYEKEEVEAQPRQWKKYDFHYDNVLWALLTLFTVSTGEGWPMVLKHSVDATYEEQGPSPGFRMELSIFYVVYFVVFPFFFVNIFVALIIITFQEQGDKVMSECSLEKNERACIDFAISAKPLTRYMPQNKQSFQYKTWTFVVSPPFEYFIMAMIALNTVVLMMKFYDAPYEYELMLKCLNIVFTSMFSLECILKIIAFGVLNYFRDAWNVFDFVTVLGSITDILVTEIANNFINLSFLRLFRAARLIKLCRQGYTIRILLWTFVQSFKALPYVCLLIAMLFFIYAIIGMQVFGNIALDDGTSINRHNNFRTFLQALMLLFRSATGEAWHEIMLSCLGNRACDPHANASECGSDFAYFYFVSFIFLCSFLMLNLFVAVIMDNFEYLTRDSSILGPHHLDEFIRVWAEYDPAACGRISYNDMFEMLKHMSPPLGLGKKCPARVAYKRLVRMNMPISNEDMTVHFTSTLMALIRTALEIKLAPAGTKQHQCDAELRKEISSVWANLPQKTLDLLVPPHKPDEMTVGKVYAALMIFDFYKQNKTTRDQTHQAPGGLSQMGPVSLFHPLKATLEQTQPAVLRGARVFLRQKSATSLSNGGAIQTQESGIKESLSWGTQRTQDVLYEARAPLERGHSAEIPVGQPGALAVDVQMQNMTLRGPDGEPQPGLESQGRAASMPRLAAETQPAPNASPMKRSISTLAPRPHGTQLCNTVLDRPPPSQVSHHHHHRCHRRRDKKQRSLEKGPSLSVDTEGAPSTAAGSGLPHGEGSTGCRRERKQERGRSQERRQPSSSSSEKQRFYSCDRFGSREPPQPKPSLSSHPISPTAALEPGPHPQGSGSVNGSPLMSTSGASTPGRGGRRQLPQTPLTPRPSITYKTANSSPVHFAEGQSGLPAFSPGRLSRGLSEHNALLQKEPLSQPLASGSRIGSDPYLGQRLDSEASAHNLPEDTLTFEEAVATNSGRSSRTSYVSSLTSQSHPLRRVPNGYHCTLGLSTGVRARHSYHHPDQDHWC

IC50 [1]: 1.3 ± 0.1 µM
Compound: COc1ccc(OCC(O)CNC2CCCC2)c(C(C)(C)C)c1 (racemic) [C2230, 1-(2-tert-butyl-4-methoxyphenoxy)-3-(cyclopentylamino)propan-2-ol]
IC50 (CaV1.2): 22.7 ± 6.3 µM
